Values quoted from earlier work as cited in patent US20240041034A1, “ANTIMICROBIAL COMPOSITION COMPRISING A DIOCTYLDIMETHYLAMMONIUM COMPOUND” (The Procter & Gamble Company, priority 2022, published 2024).

Conditions: in water, in the absence of surfactant

Compound: CCCCCCCC[N+](C)(C)CCCCCCCC.[Cl-] [DODMAC, dioctyldimethylammonium chloride]
- Critical Micelle Concentration (CMC): ~5000 ppm
